Measurements from patent US9062050B2, “Inhibitor of JAK1 and JAK2” (Eli Lilly and Company, priority 2012, dated 2015).

Assays:
JAK1 = target: T1, JAK1 (Homo sapiens, UniProt P23458); experiment: JAK LanthaScreen Kinase Assay (TR-FRET), JAK1; type: biochemical; details: enzyme assay, 20.0 micromolar ATP, n=3; read-out: IC50 against JAK1
T1 construct: purchased Life Technologies #PV4844
Source text: The JAK LanthaScreen™ Kinase Assay (Life Technologies, #PV4844) is used to determine compound IC50 values against the JAK1, JAK2, and JAK3 kinases. This kinase assay is a Time Resolved Fluorescence Resonance Energy Transfer (TR-FRET) assay format that uses long-lifetime terbium (Tb) labeled antibody as the donor species and Green Fluorescent Protein-Signal Transducers and Activators of Transcription (GFP-STAT1) as the acceptor species.
The TR-FRET ratio is used to monitor JAK1, JAK2, or JAK3 activity where an increase in phosphorylation of the GFP-STAT1 results in an increase in the TR-FRET ratio. Perform the kinase reaction using a 12.5 microliter reaction volume in shallow black 384-well Proxiplate (PerkinElmer, #6008260). […] Incubate at room temperature for 90 minutes, and read in an EnVision plate reader (PerkinElmer, #2104-0010) with 340 nm wavelength excitation filter and emission filters of 520 nm and 495 nm wavelengths. The ratio is derived from the emission wavelength for the GFP-STAT1 which is measured at 520 nanometer versus the emission at 495 nanometer for the Tb-anti-pSTAT1[pTyr701]. Derive the IC50 value for the compound using percent inhibition data, which is calculated from the reaction data relative to on-plate controls (active enzyme versus 2.0 micromolar control-inhibited enzyme). […]

IL-6-STAT3 signaling = experiment: DS1-AlphaScreen-pSTAT3 cell-based assay; details: DS1 cells, IL6 10 ng/ml; read-out: IC50, inhibits IL-6-STAT3 signaling (pSTAT3)
Experimental: The DS1-AlphaScreen-pSTAT3-cell-based assay is used to examine the potency of compounds at blocking the IL6-stimulated STAT3 pathway. The JAK-STAT3 pathway is constitutively active in many types of cancers and is implicated in tumor cells for increasing proliferation, survival, and invasion. DS1 cells (ATCC) are cultured in RPMI complete medium with 10% FBS and then adopted and grown in DMEM/High Modified medium supplemented with 10% FBS at 37° C. at 95% humidity and under an atmosphere of 5% CO2. DS1 cells are plated at a density of 4×10^4 cells/well in 96 well-plates and cultured in serum-free culture medium at 37° C. for three hours, followed by pre-treatment either with vehicle alone (DMSO) or test compounds across a range of final concentrations from 0-20 μM for 10 min. IL6 (R&D System, 206-IL) is then added into the cell culture at 10 ng/ml final concentration, which is continued for an additional 30 min at 37° C. Finally, cells are lysed with 5× alpha lysis buffer and transferred to a 384-well plate (PerkinElmer, #6008280) filled with the reaction mixture (TGR Biosciences, South Australia, Australia, #TGRS3S10K) for pSTAT3 detection (#TGRS3SHV100). The plates are sealed and incubated at room temperature for 2 hours, and pSTAT3 is measured by using an Envision06 plate reader (TGR Biosciences, South Australia, Australia). The data are analyzed with ActivityBase 4.0.

phosphorylation of STAT3 = experiment: Mia-Paca2-MSD-pSTAT3 cell-based assay; details: Homo sapiens, MIA PaCa-2; Mia-paca2 pancreatic cancer cells, stimulated with conditioned medium; read-out: IC50, inhibits the phosphorylation of STAT3
Experimental: The Mia-Paca2-MSD (MesoScale Diagnostics)-pSTAT3 cell-based assay is used to examine the potency of compounds at blocking STAT3 phosphorylation in pancreatic cancer cells. Mia-paca2 cells (ATCC) are grown in DMEM complete medium supplemented with 10% FBS at 37° C. in incubator with 5% CO2. Cells are then collected, counted, plated at 4×10^4 cells/well in 96-well plates, and cultured for overnight at 37° C. with 5% CO2. Culture medium is removed from the cells and replaced with serum-free medium containing either vehicle alone (DMSO) or 2× final concentrations of compounds across a range from 0-20 μM at 1:3 dilution (10 dilutions). […] After stimulation, all medium is manually removed as above and cells are lysed in 50 microliters of ice cold 1×MSD lysis buffer (MesoScale Diagnostics, K150DID-2) containing 1×HALT protease and phosphatase inhibitor cocktail ((Thermo Scientific, 78441). The 96-well plates are sealed and then mixed for 2 minutes on an orbital shaker at room temperature, and then immediately frozen at −80° C. overnight. pSTAT3 is detected with the use of the MA6000 MSD Whole Cell Lysate Kit for Phospho-STAT-3 (Tyr 705) (MesoScale Diagnostics, #K150DID-2) as following, plates were blocked with blocking buffer at room temperature for 1-2 hours with shaking, and then washed 4× with washing buffer. […]

T1 sequence (P23458 whole entry): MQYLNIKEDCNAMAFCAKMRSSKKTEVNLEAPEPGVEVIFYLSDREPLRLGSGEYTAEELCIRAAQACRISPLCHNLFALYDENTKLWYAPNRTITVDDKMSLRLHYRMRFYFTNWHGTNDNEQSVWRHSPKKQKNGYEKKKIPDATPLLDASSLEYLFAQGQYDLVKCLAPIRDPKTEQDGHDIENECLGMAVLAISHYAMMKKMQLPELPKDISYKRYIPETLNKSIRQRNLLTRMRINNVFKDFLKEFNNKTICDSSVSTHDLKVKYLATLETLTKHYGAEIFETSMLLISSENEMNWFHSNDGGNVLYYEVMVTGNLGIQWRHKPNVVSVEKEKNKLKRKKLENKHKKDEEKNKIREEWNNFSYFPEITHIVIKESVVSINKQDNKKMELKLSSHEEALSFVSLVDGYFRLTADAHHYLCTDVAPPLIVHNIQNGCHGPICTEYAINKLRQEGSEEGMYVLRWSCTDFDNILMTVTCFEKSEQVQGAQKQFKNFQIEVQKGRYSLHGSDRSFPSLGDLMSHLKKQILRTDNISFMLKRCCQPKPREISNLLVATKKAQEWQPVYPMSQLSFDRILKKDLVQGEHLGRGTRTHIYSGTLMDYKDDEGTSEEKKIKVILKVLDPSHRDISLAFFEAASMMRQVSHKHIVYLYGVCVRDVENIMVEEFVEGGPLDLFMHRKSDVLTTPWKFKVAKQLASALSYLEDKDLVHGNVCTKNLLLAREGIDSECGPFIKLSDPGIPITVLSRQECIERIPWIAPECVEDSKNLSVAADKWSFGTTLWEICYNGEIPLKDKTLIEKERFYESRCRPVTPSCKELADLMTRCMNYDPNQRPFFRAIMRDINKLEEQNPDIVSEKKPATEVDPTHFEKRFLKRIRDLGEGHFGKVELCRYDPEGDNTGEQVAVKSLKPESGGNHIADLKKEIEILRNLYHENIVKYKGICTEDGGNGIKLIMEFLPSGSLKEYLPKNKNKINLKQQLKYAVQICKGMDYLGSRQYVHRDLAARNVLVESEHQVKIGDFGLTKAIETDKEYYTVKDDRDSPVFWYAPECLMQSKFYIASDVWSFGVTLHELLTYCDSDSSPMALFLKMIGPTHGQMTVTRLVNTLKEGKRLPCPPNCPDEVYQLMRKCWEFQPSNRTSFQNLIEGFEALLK

In the case of `Cc1cc(Nc2ccc3ncn([C@@H]4CCc5ccc(F)cc54)c3n2)[nH]n1.Cl.Cl` [Example 1, 3-[(1R)-6-fluoro-2,3-dihydro-1H-inden-1-yl]-N-(3-methyl-1H-pyrazol-5-yl)-3H-imidazo[4,5-b]pyridin-5-amine dihydrochloride], the IC50 (JAK1) is reported as 1.7 nM, the IC50 (IL-6-STAT3 signaling) is reported as 66 nM and the IC50 (phosphorylation of STAT3) is reported as 12 nM.
